{"source": "patent US8895695B2", "about": "“Template-fixed beta-hairpin peptidomimetics with CXCR4 antagonizing activity” (priority 2003, dated 2014)", "key": {"[1]": {"test_system": "'CCR5' cells / Hut/4-3 cells co-cultivation", "test": "FIGS-Assay", "assay_type": "cell-based", "conditions": "200 nM peptide, 48 hours of co-cultivation", "experimental": "The assay was performed according to ref. 5, below. Stock dilutions of the peptides (10 mM) were prepared by dissolving in 10 mM Tris-HCl at room temperature. Stock solutions were kept at +4° C., light protected. Working dilutions were prepared extemporaneously by serial dilution in Phosphate Buffered Saline (PBS) and added in a final volume of 10 μl directly to the cell cultures. After 48 hours of co-cultivation the cultures were rinsed with PBS and then exposed to glutaraldehyde/formaldehyde (0.2%/2%) in PBS for five minutes. For photometric quantification the fixed cultures were subsequently incubated with ortho-nitro-phenyl-galactopyranoside (ONPG) as a β-galactosidase substrate, which was enzymatically converted into the chromophore ortho-nitrophenol (ONP). The read out is directly obtained by measuring optical density of wells at 405 nm in an iEMS 96well-plate reader.\nAll fine chemicals came from Merck (Darmstadt, Germany)."}, "[2]": {"test_system": "human red blood cells (hRBC)", "test": "Hemolysis", "assay_type": "cell-based", "how_it_was_run": "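Percent lysis taken as OD540 of peptide-treated sample over OD540 of the water/0.1% Triton X-100 full-lysis control, with PBS giving 0%. Peptides at 100 μM exposed to PBS-washed human RBCs (20% v/v) for 1 hour at 37° C. before centrifugation and 20-fold dilution of supernatant.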"}, "in vitro": {"test": "in vitro", "assay_type": "in vitro ADME", "conditions": "plasma", "experimental": "405 μl of plasma/albumin solution were placed in a polypropylene (PP) tube and spiked with 45 μl of compound from a 100 μM solution B, derived from 135 μl of PBS and 15 μl of 1 mM peptide in PBS, pH 7.4. 150 μl aliquots were transferred into individual wells of the 10 kDa filter plate (Millipore MAPPB 1010 Biomax membrane). For “0 minutes controls”: 270 μl of PBS were placed in a PP tube and 30 μl of stock solution B was added and vortexed. 150 μl of control solution was placed into one well of the filter plate and serves as “filtered control”.\nFurther 150 μl of control solution were placed directly into a receiver well (reserved for filtrate) and serve as “not-filtered control”. The entire plate including evaporation lid was incubated for 60 min at 37° C. Plasma samples (rat plasma: Harlan Sera lab UK, human plasma: Blutspendezentrum Zürich) were centrifuged at least for 2 h at 4300 rpm (3500 g) and 15° C. in order to yield 100 μl filtrate. For “serum albumin”-samples (freshly prepared human albumin: Sigma A-4327, rat albumin: Sigma A-6272, all at 40 mg/ml concentration in PBS) approximately 1 hour of centrifugation is sufficient. The filtrates in the receiver PP plate were analysed by LC/MS as followes: Column: Jupiter C18 (Phenomenex), mobile phases: (A) 0.1% formic acid in water and (B) acetonitrile, gradient: 5%-100% (B) in 2 minutes, electrospray ionization, MRM detection (triple quadrupole). The peak areas were determined and triplicate values are averaged. The binding is expressed in percent of the (filtered and not-filtered time point 0 min) control 1 and 2 by: 100−(100*T60/T0). The average from these values is then calculated (see ref. 9 below)."}, "[3]": {"test": "Cytotoxicity assay (MTT reduction), HELA cells;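 further: MTT reduction read as absorbance at 595 nm, blank-corrected and expressed as percent growth relative to the time-zero cell reading, triplicate wells per concentration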", "conditions": "human, HELA cells (Acc57)"}}, "data": [{"molecule": "N=C(N)NCCC[C@@H]1NC(=O)[C@@H]2CSSC[C@H](NC(=O)[C@H](Cc3ccc4ccccc4c3)NC(=O)[C@H](CCCNC(=N)N)NC(=O)[C@H](CCCNC(=N)N)NC(=O)[C@H]3CCCN3C(=O)CNC1=O)C(=O)N[C@@H](Cc1ccc(O)cc1)C(=O)N[C@@H](CCCNC(N)=O)C(=O)N[C@@H](CCCCN)C(=O)N1CCC[C@@H]1C(=O)N1CCC[C@H]1C(=O)N[C@@H](Cc1ccc(O)cc1)C(=O)N[C@@H](CCCNC(=N)N)C(=O)N[C@@H](CCCNC(N)=O)C(=O)N2", "note": "[Ex. 51]", "values": [{"measurement": "FIGS % inhibition at 200 nM", "setting": "[1]", "value": 93.9, "unit": "%"}, {"measurement": "Hemolysis at 100 μM", "setting": "[2]", "value": 0, "unit": "%"}, {"measurement": "half-life at 10 μM", "setting": "in vitro; human", "value": 4.77, "unit": "h"}, {"measurement": "half-life at 10 μM", "setting": "in vitro; rat", "value": "> 5", "unit": "h"}, {"measurement": "CC50 at 48 h", "setting": "[3]", "value": 97, "unit": "µM"}]}]}
